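Protocol summary: plate cells (96-well), add compound at 5 concentrations, incubate 48 h, interpolate endpoints linearly. GI50 = concentration required for 50% inhibition of growth.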 Active and inactive are the calls of the source. Rule as the data show it: active = GI50 up to about 1.1 µM and inactive = higher.
Legend:
Experiment in all cases: DTP human tumour cell line panel, 48 h
786-0 = system: 786-0
A498 = system: A498
A549 = system: A549
ACHN = system: ACHN
BT-549 = system: BT-549
CAKI-1 = system: CAKI-1
CCRF-CEM = system: CCRF-CEM
COLO 205 = system: COLO 205
DU-145 = system: DU-145
EKVX = system: EKVX
HCC 2998 = system: HCC 2998
HCT-116 = system: HCT-116
HCT-15 = system: HCT-15
HL-60 = system: HL-60
HOP-62 = system: HOP-62
HT-29 = system: HT-29
Hs-578T = system: Hs-578T
IGROV-1 = system: IGROV-1
K562 = system: K562
KM12 = system: KM12
LOX IMVI = system: LOX IMVI
M14 = system: M14
MCF7 = system: MCF7
MDA-MB-231 = system: MDA-MB-231
MDA-MB-435 = system: MDA-MB-435
MDA-N = system: MDA-N
MOLT-4 = system: MOLT-4
Malme-3M = system: Malme-3M
NCI-H226 = system: NCI-H226
NCI-H23 = system: NCI-H23
NCI-H460 = system: NCI-H460
NCI-H522 = system: NCI-H522
NCI/ADR-RES = system: NCI/ADR-RES
OVCAR-3 = system: OVCAR-3
OVCAR-4 = system: OVCAR-4
OVCAR-5 = system: OVCAR-5
OVCAR-8 = system: OVCAR-8
PC-3 = system: PC-3
RPMI-8226 = system: RPMI-8226
RXF 393 = system: RXF 393
SF-268 = system: SF-268
SF-295 = system: SF-295
SF-539 = system: SF-539
SK-MEL-28 = system: SK-MEL-28
SK-MEL-2 = system: SK-MEL-2
SK-MEL-5 = system: SK-MEL-5
SK-OV-3 = system: SK-OV-3
SN12C = system: SN12C
SNB-19 = system: SNB-19
SNB-75 = system: SNB-75
SR = system: SR
SW-620 = system: SW-620
T47D = system: T47D
TK-10 = system: TK-10
U-251 = system: U-251
UACC-257 = system: UACC-257
UACC-62 = system: UACC-62
UO-31 = system: UO-31
HOP-92 = system: HOP-92

CCN(CC)C1Oc2cc3c(cc2C(c2cccc(OC)c2O)C1C)OCO3 (stereo unspecified)
GI50 (786-0): 9.79 µM (inactive) | GI50 (A498): 2.36 µM (inactive) | GI50 (A549): 5.02 µM (inactive) | GI50 (ACHN): 6.25 µM (inactive) | GI50 (BT-549): 7.18 µM (inactive) | GI50 (CAKI-1): 5.6 µM (inactive) | GI50 (CCRF-CEM): 3.94 µM (inactive) | GI50 (COLO 205): 3.03 µM (inactive) | GI50 (DU-145): 5.35 µM (inactive) | GI50 (EKVX): 10.6 µM (inactive) | GI50 (HCC 2998): 12.4 µM (inactive) | GI50 (HCT-116): 4.28 µM (inactive) | GI50 (HCT-15): 4.79 µM | GI50 (HL-60): 2.99 µM (inactive) | GI50 (HOP-62): 5.28 µM (inactive) | GI50 (HT-29): 4.16 µM (inactive) | GI50 (Hs-578T): 2.51 µM (inactive) | GI50 (IGROV-1): 8.04 µM (inactive) | GI50 (K562): 3.75 µM (inactive) | GI50 (KM12): 4.1 µM (inactive) | GI50 (LOX IMVI): 4.31 µM (inactive) | GI50 (M14): 2.98 µM (inactive) | GI50 (MCF7): 9.55 µM (inactive) | GI50 (MDA-MB-231): 10.5 µM (inactive) | GI50 (MDA-MB-435): 1.74 µM (inactive) | GI50 (MDA-N): 1.7 µM (inactive) | GI50 (MOLT-4): 3.68 µM (inactive) | GI50 (Malme-3M): 3.94 µM (inactive) | GI50 (NCI-H226): 3.44 µM (inactive) | GI50 (NCI-H23): 5.79 µM (inactive) | GI50 (NCI-H460): 4.24 µM (inactive) | GI50 (NCI-H522): 2.41 µM (inactive) | GI50 (NCI/ADR-RES): 4.62 µM (inactive) | GI50 (OVCAR-3): 1.94 µM (inactive) | GI50 (OVCAR-4): 7.14 µM (inactive) | GI50 (OVCAR-5): 13.8 µM (inactive) | GI50 (OVCAR-8): 13.7 µM (inactive) | GI50 (PC-3): 3.63 µM (inactive) | GI50 (RPMI-8226): 3.24 µM (inactive) | GI50 (RXF 393): 4.5 µM (inactive) | GI50 (SF-268): 6.62 µM (inactive) | GI50 (SF-295): 3.08 µM (inactive) | GI50 (SF-539): 2.54 µM (inactive) | GI50 (SK-MEL-28): 5.96 µM (inactive) | GI50 (SK-MEL-2): 4.52 µM (inactive) | GI50 (SK-MEL-5): 2.97 µM (inactive) | GI50 (SK-OV-3): 4.99 µM (inactive) | GI50 (SN12C): 4.6 µM (inactive) | GI50 (SNB-19): 3.76 µM (inactive) | GI50 (SNB-75): 2.81 µM (inactive) | GI50 (SR): 4.75 µM (inactive) | GI50 (SW-620): 4.33 µM (inactive) | GI50 (T47D): 14.5 µM (inactive) | GI50 (TK-10): 16.4 µM (inactive) | GI50 (U-251): 3.69 µM (inactive) | GI50 (UACC-257): 7.6 µM (inactive) | GI50 (UACC-62): 5.24 µM (inactive) | GI50 (UO-31): 9.38 µM (inactive)

Cc1ccc(C(=O)O)c(CC2Cc3c(C)cccc3C2=O)c1 (stereo unspecified)
GI50 (786-0): > 100 µM (inactive) | GI50 (A549): > 100 µM (inactive) | GI50 (ACHN): > 100 µM (inactive) | GI50 (BT-549): > 100 µM (inactive) | GI50 (CAKI-1): > 100 µM (inactive) | GI50 (CCRF-CEM): > 100 µM (inactive) | GI50 (COLO 205): > 100 µM (inactive) | GI50 (DU-145): > 100 µM (inactive) | GI50 (EKVX): > 100 µM (inactive) | GI50 (HCC 2998): > 100 µM (inactive) | GI50 (HCT-116): > 100 µM (inactive) | GI50 (HCT-15): > 100 µM | GI50 (HL-60): > 100 µM (inactive) | GI50 (HOP-62): > 100 µM (inactive) | GI50 (HOP-92): > 100 µM (inactive) | GI50 (HT-29): > 100 µM (inactive) | GI50 (Hs-578T): > 100 µM (inactive) | GI50 (IGROV-1): > 100 µM (inactive) | GI50 (K562): > 100 µM (inactive) | GI50 (KM12): > 100 µM (inactive) | GI50 (LOX IMVI): 90.4 µM (inactive) | GI50 (M14): > 100 µM (inactive) | GI50 (MCF7): > 100 µM (inactive) | GI50 (MDA-MB-231): > 100 µM (inactive) | GI50 (MDA-MB-435): > 100 µM (inactive) | GI50 (MDA-N): > 100 µM (inactive) | GI50 (MOLT-4): > 100 µM (inactive) | GI50 (Malme-3M): > 100 µM (inactive) | GI50 (NCI-H226): > 100 µM (inactive) | GI50 (NCI-H23): > 100 µM (inactive) | GI50 (NCI-H460): > 100 µM (inactive) | GI50 (NCI-H522): > 100 µM (inactive) | GI50 (NCI/ADR-RES): > 100 µM (inactive) | GI50 (OVCAR-3): > 100 µM (inactive) | GI50 (OVCAR-4): > 100 µM (inactive) | GI50 (OVCAR-5): > 100 µM (inactive) | GI50 (OVCAR-8): > 100 µM (inactive) | GI50 (PC-3): > 100 µM (inactive) | GI50 (RPMI-8226): > 100 µM (inactive) | GI50 (RXF 393): > 100 µM (inactive) | GI50 (SF-268): > 100 µM (inactive) | GI50 (SF-295): > 100 µM (inactive) | GI50 (SF-539): > 100 µM (inactive) | GI50 (SK-MEL-28): > 100 µM (inactive) | GI50 (SK-MEL-2): > 100 µM (inactive) | GI50 (SK-MEL-5): > 100 µM (inactive) | GI50 (SK-OV-3): > 100 µM (inactive) | GI50 (SN12C): > 100 µM (inactive) | GI50 (SNB-19): > 100 µM (inactive) | GI50 (SNB-75): > 100 µM (inactive) | GI50 (SR): > 100 µM (inactive) | GI50 (SW-620): > 100 µM (inactive) | GI50 (T47D): > 100 µM (inactive) | GI50 (TK-10): > 100 µM (inactive) | GI50 (U-251): > 100 µM (inactive) | GI50 (UACC-257): > 100 µM (inactive) | GI50 (UACC-62): > 100 µM (inactive) | GI50 (UO-31): > 100 µM (inactive)

From ChEMBL document CHEMBL1201862, “PubChem BioAssay data set” (2004)
